molecular target: VMAT2 (Homo sapiens (Human), UniProt Q05940); test: VMAT2 radioligand binding assay: competition against 3H-dihydrotetrabenezine on human platelet homogenate (modified procedure); settings: 10 nM 3H-dihydrotetrabenezine, 25° C., 90 minutes
Method: Examples of techniques for determining the capability of a compound to inhibit VMAT2 are provided below. The procedure is adapted from that described previously (see, e.g., Near, (1986), Mol. Pharmacol. 30: 252-57; Teng, et al., J. Neurochem. 71, 258-65, 1998). Homogenates from human platelets or Sprague-Dawley rat forebrain were prepared by homogenization and then washed by centrifugation as described previously (see, e.g., Hoare et al., (2003) Peptides 24:1881-97). […] Following incubation at 25° C. for two hours, bound radioligand was collected by rapid filtration onto GF/B glass fiber filters using a Unifilter-96 Harvester (PerkinElmer). Filter plates were pre-treated for 10 minutes with 0.1% polyethylenimine, and following harvesting the filter plates were washed with 800 μl VMAT2 binding buffer. Bound radioligand was quantified by scintillation counting using a Topcount NXT (PerkinElmer).
Following incubation at 25° C. for 90 minutes, bound radioligand was collected by rapid filtration onto GF/B glass fiber filters using a Unifilter-96 Harvester (PerkinElmer). Filter plates were pre-treated with 0.1% polyethylenimine and allowed to dry overnight, and following harvesting the filter plates were washed with 800 μl VMAT2 binding buffer. Bound radioligand was quantified by scintillation counting using a Topcount NXT (PerkinElmer).

Sequence of VMAT2 (Q05940 whole entry): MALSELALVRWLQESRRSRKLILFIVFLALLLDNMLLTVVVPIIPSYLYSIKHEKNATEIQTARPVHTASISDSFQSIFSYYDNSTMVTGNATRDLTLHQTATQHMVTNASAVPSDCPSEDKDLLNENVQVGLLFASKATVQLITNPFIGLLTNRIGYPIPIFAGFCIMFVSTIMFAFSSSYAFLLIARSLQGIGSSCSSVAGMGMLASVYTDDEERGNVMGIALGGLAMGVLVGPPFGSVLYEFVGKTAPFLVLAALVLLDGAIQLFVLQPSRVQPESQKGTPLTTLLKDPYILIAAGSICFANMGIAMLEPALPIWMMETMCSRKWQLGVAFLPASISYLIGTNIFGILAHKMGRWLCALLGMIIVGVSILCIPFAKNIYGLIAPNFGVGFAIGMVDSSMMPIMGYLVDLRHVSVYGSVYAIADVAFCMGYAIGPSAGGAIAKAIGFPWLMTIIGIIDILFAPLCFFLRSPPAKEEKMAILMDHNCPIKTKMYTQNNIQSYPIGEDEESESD

Row | SMILES | Ki [nM]
1 | CCN1C[C@@H]2c3cc(OC)c(OC)cc3CCN2C[C@H]1CC(C)C [Compound 2-1, (3R,11bS)-2-ethyl-9,10-dimethoxy-3-(2-methylpropyl)-1H,2H,3H,4H,6H,7H,11bH-piperazino[2,1-a]isoquinoline] | 10 to 500
2 | COc1cc2c(cc1OC)[C@H]1CN(C)[C@H](CC(C)C)CN1CC2 [Compound 2-2, (3R,11bS)-9,10-dimethoxy-2-methyl-3-(2-methylpropyl)-1H,2H,3H,4H,6H,7H,11bH-piperazino[2,1-a]isoquinoline] | 10 to 500
3 | COc1cc2c(cc1OC)[C@H]1CN(CC(C)C)[C@H](CC(C)C)CN1CC2 [Compound 2-3, (3R,11bS)-9,10-dimethoxy-2,3-bis(2-methylpropyl)-1H,2H,3H,4H,6H,7H,11bH-piperazino[2,1-a]isoquinoline] | > 500
4 | CCN1C[C@H]2c3cc(OC)c(OC)cc3CCN2C[C@H]1CC(C)C [Compound 3-1, (3R,11bR)-2-ethyl-9,10-dimethoxy-3-(2-methylpropyl)-1H,2H,3H,4H,6H,7H,11bH-piperazino[2,1-a]isoquinoline] | > 500
5 | COc1cc2c(cc1OC)[C@@H]1CN(C)[C@H](CC(C)C)CN1CC2 [Compound 3-2, (3R,11bR)-9,10-dimethoxy-2-methyl-3-(2-methylpropyl)-1H,2H,3H,4H,6H,7H,11bH-piperazino[2,1-a]isoquinoline] | > 500
6 | COc1cc2c(cc1OC)[C@@H]1CN(CC(C)C)[C@H](CC(C)C)CN1CC2 [Compound 3-3, (3R,11bR)-9,10-dimethoxy-2,3-bis(2-methylpropyl)-1H,2H,3H,4H,6H,7H,11bH-piperazino[2,1-a]isoquinoline] | > 500
7 | CCOc1cc2c(cc1OC)[C@H]1CN(C)[C@H](CC(C)C)CN1CC2 [Compound 5-1, (3R,11bS)-9-ethoxy-10-methoxy-2-methyl-3-(2-methylpropyl)-1H,2H,3H,4H,6H,7H,11bH-piperazino[2,1-a]isoquinoline] | < 10
8 | COc1cc2c(cc1OC(C)C)CCN1C[C@@H](CC(C)C)N(C)C[C@H]21 [Compound 5-2, (3R,11bS)-10-methoxy-2-methyl-3-(2-methylpropyl)-9-(propan-2-yloxy)-1H,2H,3H,4H,6H,7H,11bH-piperazino[2,1-a]isoquinoline] | 10 to 500
9 | COc1cc2c(cc1OCCCF)CCN1C[C@@H](CC(C)C)N(C)C[C@H]21 [Compound 5-3, (3R,11bS)-9-(3-fluoropropoxy)-10-methoxy-2-methyl-3-(2-methylpropyl)-1H,2H,3H,4H,6H,7H,11bH-piperazino[2,1-a]isoquinoline] | 10 to 500
10 | COc1cc2c(cc1OCCF)CCN1C[C@@H](CC(C)C)N(C)C[C@H]21 [Compound 5-4, (3R,11bS)-9-(2-fluoroethoxy)-10-methoxy-2-methyl-3-(2-methylpropyl)-1H,2H,3H,4H,6H,7H,11bH-piperazino[2,1-a]isoquinoline] | 10 to 500
11 | COc1cc2c(cc1OC1CC1)CCN1C[C@@H](CC(C)C)N(C)C[C@H]21 [Compound 5-5, (3R,11bS)-9-cyclopropoxy-10-methoxy-2-methyl-3-(2-methylpropyl)-1H,2H,3H,4H,6H,7H,11bH-piperazino[2,1-a]isoquinoline] | 10 to 500
12 | CCCOc1cc2c(cc1OC)[C@H]1CN(C)[C@H](CC(C)C)CN1CC2 [Compound 5-6, (3R,11bS)-10-methoxy-2-methyl-3-(2-methylpropyl)-9-propoxy-1H,2H,3H,4H,6H,7H,11bH-piperazino[2,1-a]isoquinoline] | < 10
13 | COc1cc2c(cc1OC1CCCC1)CCN1C[C@@H](CC(C)C)N(C)C[C@H]21 [Compound 5-7, (3R,11bS)-9-(cyclopentyloxy)-10-methoxy-2-methyl-3-(2-methylpropyl)-1H,2H,3H,4H,6H,7H,11bH-piperazino[2,1-a]isoquinoline] | < 10
14 | C=CCOc1cc2c(cc1OC)[C@H]1CN(C)[C@H](CC(C)C)CN1CC2 [Compound 5-8, (3R,11bS)-10-methoxy-2-methyl-3-(2-methylpropyl)-9-(prop-2-en-1-yloxy)-1H,2H,3H,4H,6H,7H,11bH-piperazino[2,1-a]isoquinoline] | < 10
15 | COc1cc2c(cc1OCC(C)C)CCN1C[C@@H](CC(C)C)N(C)C[C@H]21 [Compound 5-9, (3R,11bS)-10-methoxy-2-methyl-9-(2-methylpropoxy)-3-(2-methylpropyl)-1H,2H,3H,4H,6H,7H,11bH-piperazino[2,1-a]isoquinoline] | < 10
16 | COCCOc1cc2c(cc1OC)[C@H]1CN(C)[C@H](CC(C)C)CN1CC2 [Compound 5-10, (3R,11bS)-10-methoxy-9-(2-methoxyethoxy)-2-methyl-3-(2-methylpropyl)-1H,2H,3H,4H,6H,7H,11bH-piperazino[2,1-a]isoquinoline] | 10 to 500

Row | SMILES | Ki [nM]
17 | COc1cc2c(cc1OCC1CCC1)CCN1C[C@@H](CC(C)C)N(C)C[C@H]21 [Compound 5-11, (3R,11bS)-9-(cyclobutylmethoxy)-10-methoxy-2-methyl-3-(2-methylpropyl)-1H,2H,3H,4H,6H,7H,11bH-piperazino[2,1-a]isoquinoline] | < 10
18 | COc1cc2c(cc1OCCCC#N)CCN1C[C@@H](CC(C)C)N(C)C[C@H]21 [Compound 5-12, 4-{[(3R,11bS)-10-methoxy-2-methyl-3-(2-methylpropyl)-1H,2H,3H,4H,6H,7H,11bH-piperazino[2,1-a]isoquinolin-9-yl]oxy}butanenitrile] | 10 to 500
19 | COc1cc2c(cc1OCCCC(F)(F)F)CCN1C[C@@H](CC(C)C)N(C)C[C@H]21 [Compound 5-13, (3R,11bS)-10-methoxy-2-methyl-3-(2-methylpropyl)-9-(4,4,4-trifluorobutoxy)-1H,2H,3H,4H,6H,7H,11bH-piperazino[2,1-a]isoquinoline] | < 10
20 | COc1cc2c(cc1OCCCCF)CCN1C[C@@H](CC(C)C)N(C)C[C@H]21 [Compound 5-14, (3R,11bS)-9-(4-fluorobutoxy)-10-methoxy-2-methyl-3-(2-methylpropyl)-1H,2H,3H,4H,6H,7H,11bH-piperazino[2,1-a]isoquinoline] | < 10
21 | COc1cc2c(cc1OCC1CC1)CCN1C[C@@H](CC(C)C)N(C)C[C@H]21 [Compound 5-15, (3R,11bS)-9-(cyclopropylmethoxy)-10-methoxy-2-methyl-3-(2-methylpropyl)-1H,2H,3H,4H,6H,7H,11bH-piperazino[2,1-a]isoquinoline] | < 10
22 | COc1cc2c(cc1OC1CCC1)CCN1C[C@@H](CC(C)C)N(C)C[C@H]21 [Compound 5-16, (3R,11bS)-9-cyclobutoxy-10-methoxy-2-methyl-3-(2-methylpropyl)-1H,2H,3H,4H,6H,7H,11bH-piperazino[2,1-a]isoquinoline] | < 10
23 | COc1cc2c(cc1OCC(F)(F)F)CCN1C[C@@H](CC(C)C)N(C)C[C@H]21 [Compound 5-17, (3R,11bS)-10-methoxy-2-methyl-3-(2-methylpropyl)-9-(2,2,2-trifluoroethoxy)-1H,2H,3H,4H,6H,7H,11bH-piperazino[2,1-a]isoquinoline] | < 10
24 | COc1cc2c(cc1OCC1CC1(F)F)CCN1C[C@@H](CC(C)C)N(C)C[C@H]21 (stereo partly drawn) [Compound 5-18, (3R,11bS)-9-[(2,2-difluorocyclopropyl)methoxy]-10-methoxy-2-methyl-3-(2-methylpropyl)-1H,2H,3H,4H,6H,7H,11bH-piperazino[2,1-a]isoquinoline] | < 10
25 | COc1cc2c(cc1OCCC(F)(F)F)CCN1C[C@@H](CC(C)C)N(C)C[C@H]21 [Compound 5-19, (3R,11bS)-10-methoxy-2-methyl-3-(2-methylpropyl)-9-(3,3,3-trifluoropropoxy)-1H,2H,3H,4H,6H,7H,11bH-piperazino[2,1-a]isoquinoline] | < 10
26 | COc1cc2c(cc1OC(C)C)CCN1C[C@@H](CC(C)C)N(C)C[C@@H]21 [Compound 6-1, (3R,11bR)-10-methoxy-2-methyl-3-(2-methylpropyl)-9-(propan-2-yloxy)-1H,2H,3H,4H,6H,7H,11bH-piperazino[2,1-a]isoquinoline] | > 500
27 | COc1cc2c(cc1OCCCF)CCN1C[C@@H](CC(C)C)N(C)C[C@@H]21 [Compound 6-2, (3R,11bR)-9-(3-fluoropropoxy)-10-methoxy-2-methyl-3-(2-methylpropyl)-1H,2H,3H,4H,6H,7H,11bH-piperazino[2,1-a]isoquinoline] | > 500
28 | COc1cc2c(cc1OCCF)CCN1C[C@@H](CC(C)C)N(C)C[C@@H]21 [Compound 6-3, (3R,11bR)-9-(2-fluoroethoxy)-10-methoxy-2-methyl-3-(2-methylpropyl)-1H,2H,3H,4H,6H,7H,11bH-piperazino[2,1-a]isoquinoline] | > 500
29 | COc1cc2c(cc1OC1CC1)CCN1C[C@@H](CC(C)C)N(C)C[C@@H]21 [Compound 6-4, (3R,11bR)-9-cyclopropoxy-10-methoxy-2-methyl-3-(2-methylpropyl)-1H,2H,3H,4H,6H,7H,11bH-piperazino[2,1-a]isoquinoline] | > 500
30 | COc1cc2c(cc1OCCCF)CCN1C[C@@H](CC3CCC3)N(C)C[C@H]21 [Compound 8-1, (3R,11bS)-3-(cyclobutylmethyl)-9-(3-fluoropropoxy)-10-methoxy-2-methyl-1H,2H,3H,4H,6H,7H,11bH-piperazino[2,1-a]isoquinoline] | 10 to 500
31 | COc1cc2c(cc1OCC(F)(F)F)CCN1C[C@@H](CC3CCC3)N(C)C[C@H]21 [Compound 8-2, (3R,11bS)-3-(cyclobutylmethyl)-10-methoxy-2-methyl-9-(2,2,2-trifluoroethoxy)-1H,2H,3H,4H,6H,7H,11bH-piperazino[2,1-a]isoquinoline] | < 10
